# ChEMBL document CHEMBL2150899, “Compound instability in dimethyl sulphoxide, case studies with 5-aminopyrimidines and the implications for compound storage and screening” (Bioorg Med Chem Lett, 2012)
# Columns and labels:
# Assay type in all cases: physicochemical; call rule not given here
# [1] = Drug degradation in DMSO
# [2] = Drug degradation in DMSO assessed as murexide by UV-Vis spectrophotometry
# [3] = Drug degradation in DMSO assessed as 5-aminobarbiturate formation by UV-Vis spectrophotometry
# [4] = Drug degradation in DMSO assessed as oxidation after overnight incubation
# [5] = Drug degradation in DMSO assessed as oxidation after two months; settings: 1461 h
# [6] = Drug degradation in DMSO assessed as 2,6-diamino-5-(2,6-diamino-4-oxopyrimidin-5(4H)-ylideneamino)pyrimidin-4(3H)-one formation at 10 mM incubated over 2 months by UV-Vis spectrophotometry; settings: 1461 h, 10000 µM
# [7] = Drug degradation in DMSO assessed as 2,6,8-triaminopyrimido[5,4-g]pteridin-4(3H)-one formation at 10 mM incubated over 2 months by UV-Vis spectrophotometry; settings: 1461 h, 10000 µM
# [8] = Drug degradation in DMSO after 7 days by NMR spectroscopy; settings: 168 h
# [9] = Drug degradation in DMSO assessed as 2,6-diamino-5-(2,6-diamino-4-oxopyrimidin-5(4H)-ylideneamino)pyrimidin-4(3H)-one formation after 1 day by NMR spectroscopy; settings: 24 h
# [10] = Drug degradation in DMSO assessed as ammonium cation formation after 2 days by NMR spectroscopy; settings: 48 h
# [11] = Drug degradation in DMSO assessed as 2,6,8-triaminopyrimido[5,4-g]pteridin-4(3H)-one after 87 days by NMR spectroscopy; settings: 2088 h
# [12] = Drug degradation in DMSO assessed as 2,6-diamino-5-(2,6-diamino-4-oxopyrimidin-5(4H)-ylideneamino)pyrimidin-4(3H)-one formation after 11 days by UV-Vis spectrophotometry; settings: 264 h
# [13] = Drug degradation in DMSO assessed as 2,6,8-triaminopyrimido[5,4-g]pteridin-4(3H)-one formation after 11 days by UV-Vis spectrophotometry; settings: 264 h
# [14] = Drug degradation in alkalised DMSO assessed as 2,6-diamino-5-(2,6-diamino-4-oxopyrimidin-5(4H)-ylideneamino)pyrimidin-4(3H)-one formation
# [15] = Drug degradation in alkalised DMSO assessed as 2,6,8-triaminopyrimido[5,4-g]pteridin-4(3H)-one formation after 24 hrs
# [16] = Drug degradation in acidified DMSO
# [17] = Drug degradation in DMSO assessed as pyrimido[5,4-g]pteridine-2,4,6,8-tetraamine formation by UV-Vis spectrophotometry
# [18] = Drug degradation in DMSO assessed as pyrimido[4,5-g]pteridine-2,4,7,9-tetraamine formation by UV-Vis spectrophotometry
# [19] = Drug degradation in DMSO assessed as ammonium cation formation by NMR spectroscopy
# [20] = Drug degradation in DMSO by UV-Vis spectrophotometry
# [21] = Drug degradation in DMSO assessed as oxidation
# [22] = Drug degradation in DMSO assessed as methoxy group hydrolysis by NMR spectrophotometry
# [23] = Drug degradation in DMSO by NMR spectrophotometry
# [24] = Drug degradation in DMSO assessed as bis-alloxazine and pyrimido[4,5-g]pteridine-2,4,7,9(1H,3H,6H,8H)-tetraone formation after 3 months; settings: 2191.5 h
# [25] = Drug degradation in DMSO assessed as pyrimido[5,4-g]pteridine-4,6(3H,7H)-dione formation after 2 months; settings: 1461 h
# [26] = Drug degradation in DMSO after 2 months by UV-Vis spectrophotometry; settings: 1461 h
# [27] = Drug degradation in DMSO assessed as bis-alloxazine and pyrimido[4,5-g]pteridine-2,4,7,9(1H,3H,6H,8H)-tetraone formation
smiles,measurement,setting,value
Nc1c[nH]c(=O)[nH]c1=O,Drug degradation,[1],Active
same,Drug degradation,[2],Active
same,Drug degradation,[3],Active
Nc1cc(O)nc(N)n1,Drug degradation,[1],Not Active
Nc1nc(N)c(N)c(O)n1,Drug degradation,[1],Active
same,Drug degradation,[4],Active
same,Drug degradation,[5],Active
same,Drug degradation,[6],Active
same,Drug degradation,[7],Active
same,Drug degradation,[8],Active
same,Drug degradation,[9],Active
same,Drug degradation,[10],Active
same,Drug degradation,[11],Active
same,Drug degradation,[12],Active
same,Drug degradation,[13],Active
same,Drug degradation,[14],Active
same,Drug degradation,[15],Active
same,Drug degradation,[16],Active
Nc1nc(N)c(N)c(N)n1,Drug degradation,[1],Active
same,Drug degradation,[4],Active
same,Drug degradation,[17],Active
same,Drug degradation,[18],Active
NC1C(=O)NC(=O)NC1=O,Drug degradation,[1],Active
same,Drug degradation,[19],Active
same,Drug degradation,[2],Active
Nc1nc(S)[nH]c(=O)c1N,Drug degradation,[1],Active
same,Drug degradation,[19],Active
same,Drug degradation,[20],Active
COc1nc(N)nc(OC)c1N,Drug degradation,[1],Active
same,Drug degradation,[21],Active
same,Drug degradation,[22],Active
Nc1nc(Cl)c(N)c(Cl)n1,Drug degradation,[1],Active
same,Drug degradation,[20],Active
same,Drug degradation,[21],Active
same,Drug degradation,[23],Active
Nc1c[nH]c(=O)nc1N,Drug degradation,[1],Active
same,Drug degradation,[21],Active
same,Drug degradation,[24],Active
Nc1ncnc(O)c1N,Drug degradation,[1],Active
same,Drug degradation,[25],Active
Nc1ncnc(N)c1N,Drug degradation,[20],Not Active
same,Drug degradation,[26],Not Active
Nc1c(Cl)ncnc1Cl,Drug degradation,[21],Not Active
Nc1[nH]c(=O)[nH]c(=O)c1N,Drug degradation,[1],Active
same,Drug degradation,[27],Active
